Consider 8 molecules from US5561112A, “Pseudopeptide isosteres of gly-asp and their use as antithrombic agents” (Sandoz Ltd., priority 1992, dated 1996).

The structures appear in SMILES notation. Where two headings read alike, the source gives them in different places.

Experiment [1] relates to human blood platelets. The experiment is described as follows: Inhibition of the ADP-induced aggregation of human blood platelets in the presence of fibrinogen (PA). As to conditions: washed human platelets, stimulated with ADP in the presence of fibrinogen, aggregometer. Type of experiment: cell-based. The procedure: b) Inhibition of the ADP-induced aggregation of human blood platelets in the presence of fibrinogen: Blood platelets are isolated from fresh whole-blood by centrifugation, and washed. The washed platelets are resuspended in the presence of PGI2 and apyrase and stimulated with ADP ([…]) in the presence of fibrinogen. The ability of the platelets to aggregate in the presence or absence of inhibitors is quantified using an aggregometer.
The inhibition of the ADP-induced platelet aggregation is brought about by compounds of formula I in a range of IC50 (concentration of compounds of formula I at which 50% of platelet aggregation is inhibited) of between 20 and 100 nM.
(§1) The compounds of Examples 1 to 8 are tested to determine their IC50 values in the inhibition of the fibrinogen GPIIb/IIIa binding (FB) and inhibition of the ADP-induced platelet aggregation (PA) test procedures described above.

Experiment [2] deals with T1, GP IIb/IIIa (Homo sapiens, UniProt P05106+P08514).
T1 construct: GP IIb/IIIa is isolated from membranes of human blood platelets by triton X-100 extraction; from tissue; host or cells: human blood platelets (membranes)
T1 sequence (P08514 32-887 limits assumed): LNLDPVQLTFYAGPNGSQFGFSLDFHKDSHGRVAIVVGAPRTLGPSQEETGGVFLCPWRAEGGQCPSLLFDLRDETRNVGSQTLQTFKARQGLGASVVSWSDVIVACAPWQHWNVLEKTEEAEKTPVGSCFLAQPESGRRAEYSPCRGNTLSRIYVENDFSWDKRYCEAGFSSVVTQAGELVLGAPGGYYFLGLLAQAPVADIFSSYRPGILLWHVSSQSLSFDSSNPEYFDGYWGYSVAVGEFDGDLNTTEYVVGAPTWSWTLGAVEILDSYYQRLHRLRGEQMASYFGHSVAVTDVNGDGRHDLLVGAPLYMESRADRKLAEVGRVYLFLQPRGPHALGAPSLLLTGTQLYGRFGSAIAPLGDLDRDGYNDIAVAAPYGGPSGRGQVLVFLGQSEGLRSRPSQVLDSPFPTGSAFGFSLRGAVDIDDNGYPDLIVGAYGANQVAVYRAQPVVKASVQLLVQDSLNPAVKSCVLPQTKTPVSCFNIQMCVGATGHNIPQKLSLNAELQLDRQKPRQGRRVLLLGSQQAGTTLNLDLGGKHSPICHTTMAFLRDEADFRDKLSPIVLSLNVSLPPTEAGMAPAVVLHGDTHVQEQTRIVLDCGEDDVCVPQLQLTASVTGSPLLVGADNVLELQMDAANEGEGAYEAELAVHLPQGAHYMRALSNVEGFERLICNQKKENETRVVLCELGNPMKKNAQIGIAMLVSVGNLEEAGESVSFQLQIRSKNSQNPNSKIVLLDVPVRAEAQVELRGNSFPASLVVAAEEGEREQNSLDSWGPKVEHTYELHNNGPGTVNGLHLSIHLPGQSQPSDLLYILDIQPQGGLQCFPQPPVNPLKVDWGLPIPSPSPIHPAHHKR
T1 sequence (P05106 27-788): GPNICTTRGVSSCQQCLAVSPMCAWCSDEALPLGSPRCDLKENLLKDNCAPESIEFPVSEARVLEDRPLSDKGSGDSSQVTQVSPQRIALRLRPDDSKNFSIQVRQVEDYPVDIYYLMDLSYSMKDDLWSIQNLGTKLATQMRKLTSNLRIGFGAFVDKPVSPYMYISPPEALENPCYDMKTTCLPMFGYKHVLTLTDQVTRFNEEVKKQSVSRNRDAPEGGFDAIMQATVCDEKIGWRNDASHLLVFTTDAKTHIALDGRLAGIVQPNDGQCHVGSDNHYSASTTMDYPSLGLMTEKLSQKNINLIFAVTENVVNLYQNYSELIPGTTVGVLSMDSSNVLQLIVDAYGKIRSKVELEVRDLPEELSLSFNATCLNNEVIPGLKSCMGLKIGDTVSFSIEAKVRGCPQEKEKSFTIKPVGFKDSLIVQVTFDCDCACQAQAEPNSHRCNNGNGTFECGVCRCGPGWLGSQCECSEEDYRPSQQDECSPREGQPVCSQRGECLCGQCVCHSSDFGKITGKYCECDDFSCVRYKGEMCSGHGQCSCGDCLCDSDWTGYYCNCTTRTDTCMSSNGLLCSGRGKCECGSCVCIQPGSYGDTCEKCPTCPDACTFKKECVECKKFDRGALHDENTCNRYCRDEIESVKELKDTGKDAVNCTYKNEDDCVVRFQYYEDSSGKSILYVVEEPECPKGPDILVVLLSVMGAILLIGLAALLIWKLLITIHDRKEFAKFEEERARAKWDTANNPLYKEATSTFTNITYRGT
Nature of the experiment: Inhibition of binding of fibrinogen to isolated and immobilized GP IIb/IIIa (FB). As to conditions: biotin-labelled fibrinogen; GP IIb/IIIa isolated from human blood platelet membranes, bonded to microtitre plates; read-out: FB: IC50 (inhibition of the fibrinogen GPIIb/IIIa binding).
Text: a) Inhibition of binding of fibrinogen to isolated and immobilized GP IIb/IIIa: GP IIb/IIIa is isolated from membranes of human blood platelets by triton X-100 extraction and purified by chromatography on ion exchangers and by gel filtration. The receptor protein thus obtained is bonded to microtitre plates. The inhibition of the binding of biotin-labelled fibrinogen to the receptor in the presence of inhibitor is quantified.
The compounds of formula I effect an inhibition of the fibrinogen GP IIb/IIIa binding in a range of IC50 (concentration of compounds of formula I which reduce the binding of fibrinogen to the receptor by 50%) of between 0.5 and 20 nM.
as §1

The mark [3] stands for this setting: read-out: PA: IC50 (inhibition of the ADP-induced platelet aggregation).

With `CC(C)CC(=O)N[C@@H](CCCCNC(=O)c1ccc(C(=N)N)cc1)CC(=O)O` [Example 6, (S)-3-(N-(3-methylbutyryl)amino]-7-[N-(p-amidinobenzoyl)amino]heptanoic acid], the IC50 in experiment [1] (Platelet) came to 0.015 µM; in experiment [2] it was 0.0005 µM.
With `COc1ccc(CCC(=O)N[C@@H](CCCNC(=O)Cc2ccc(C(=N)N)cc2)CC(=O)O)cc1` [Example 3, (S)-3-N-[3-(p-methoxyphenyl)propionyl]amino-6-[N-(p-amidinophenylacetyl)amino]hexanoic acid], the IC50 was found to be 0.031 µM in experiment [1] (setting [3]) and 0.0011 µM in experiment [2].
For the molecule `N=C(N)c1ccc(CC(=O)NCCC[C@@H](CC(=O)O)NC(=O)CC23CC4CC(CC(C4)C2)C3)cc1` [Example 4, (S)-3-[N-(adamant-1-ylacetyl)amino]-6-[N-(p-amidinophenylacetyl)amino]hexanoic acid], the IC50 in experiment [1] (Platelet) was 0.067 µM; in experiment [2], 0.0022 µM.
Turning to `Cc1ccc(S(=O)(=O)N[C@@H](CCCNC(=O)Cc2ccc(C(=N)N)cc2)CC(=O)O)cc1` [Example 1, (S)-3-(N-tosylamino)-6-[N-(p-amidinophenylacetyl)amino]hexanoic acid], the results for the IC50 in experiment [1] (Platelet) and in experiment [2] were 0.64 µM and 0.0076 µM, respectively.
As for `N=C(N)c1ccc(CC(=O)NCCC[C@@H](CC(=O)O)NC(=O)CCC23CC4CC(CC(C4)C2)C3)cc1` [Example 5, (S)-3-[N-(3-adamant-1-ylpropionyl)amino]-6-[N-(p-amidinophenylacetyl)amino]hexanoic acid], the IC50 is 0.061 µM in experiment [1] (Platelet) and 0.0004 µM in experiment [2].
Consider `COc1ccc(CCC(=O)N[C@@H]2CC(=O)O[C@H](CNC(=O)Cc3ccc(C(=N)N)cc3)C2)cc1` [Example 7, (3S,5S)-6-(4-amidinophenylacetylamino)-5-hydroxy-3-(4-methoxyphenylpropionylamino)-hexanoic acid-δ-lactone], for which the IC50 was 0.08 µM in experiment [1] (setting [3]) and 0.0005 µM in experiment [2].
Take `CC(C)CC(=O)N[C@@H](CCCNC(=O)Cc1ccc(C(=N)N)cc1)CC(=O)O` [Example 2, (S)-3-[N-(3-methylbutyryl)amino]-6-[N-(p-amidinophenylacetyl)amino]hexanoicacid]: the IC50 is 0.1 µM in experiment [1] (Platelet) and 0.0017 µM in experiment [2].
As for `CC(C)CC(=O)N[C@@H]1CC(=O)O[C@H](CNC(=O)Cc2ccc(C(=N)N)cc2)C1` [Example 8, (3S,5S)-6-(4-amidino-phenylacetylamino)-5-hydroxy-3-(3-methyl-butyrylamino)-hexanoic acid-δ-lactone], the IC50 came out at 0.11 µM in experiment [1] (setting [3]) and 0.0009 µM in experiment [2].
